This is an account of results in US12263171B2, “7-, 8-, and 10-substituted amino triazolo quinazoline derivatives as adenosine receptor antagonists, pharmaceutical compositions and their use” (Merck Sharp & Dohme LLC, priority 2018, dated 2025).

Assay [1] concerns the target human A2a adenosine receptor (Homo sapiens (Human), UniProt P29274). As to the kind of experiment: A2a receptor affinity radioligand binding assay ([3H] SCH58261, membranes from HEK293 or CHO cells). Conditions: unstarred values: radioligand binding. The method, boiled down: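 Displacement of tritiated SCH58261 (working dilution 4 nM) from recombinant human A2a receptor membranes (HEK293 or CHO), 60 min at room temperature in Tris pH 7.4/MgCl2 buffer after 15–30 min compound preincubation. Scintillation counting after filtration; normalized percent effect fitted 4-parameter logistic for IC50.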

Assay [2] deals with human A2b adenosine receptor (Homo sapiens (Human), UniProt P29275). As to the kind of experiment: A2b radioligand filtration binding assay (tritiated proprietary A2b antagonist, HEK293 membranes). The following applies: for IC50: unstarred values: radioligand binding; for A2B binding % inh. @ 10000 nM: unstarred. The method, boiled down: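 Displacement of a tritiated proprietary A2b antagonist from membranes of HEK293 cells recombinantly expressing human A2b receptor, measured by filtration and scintillation counting. Percent effect was normalized to total and non-specific binding and fitted with a 4-parameter logistic to give IC50.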
Chain of human A2b adenosine receptor (P29275 whole entry): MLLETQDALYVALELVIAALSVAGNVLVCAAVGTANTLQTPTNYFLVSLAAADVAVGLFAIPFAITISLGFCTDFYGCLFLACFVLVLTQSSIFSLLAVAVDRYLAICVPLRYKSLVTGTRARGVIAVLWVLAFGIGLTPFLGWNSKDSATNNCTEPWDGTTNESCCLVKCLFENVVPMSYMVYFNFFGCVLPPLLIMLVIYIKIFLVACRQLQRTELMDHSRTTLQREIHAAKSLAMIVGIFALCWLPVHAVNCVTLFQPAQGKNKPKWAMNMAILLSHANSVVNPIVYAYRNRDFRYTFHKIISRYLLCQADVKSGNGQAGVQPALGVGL

As a reminder, the IC50 is the point on the concentration scale where inhibition reaches its midpoint. High values mean weaker potency, low ones greater potency.

Chain of human A2a adenosine receptor (P29274 whole entry): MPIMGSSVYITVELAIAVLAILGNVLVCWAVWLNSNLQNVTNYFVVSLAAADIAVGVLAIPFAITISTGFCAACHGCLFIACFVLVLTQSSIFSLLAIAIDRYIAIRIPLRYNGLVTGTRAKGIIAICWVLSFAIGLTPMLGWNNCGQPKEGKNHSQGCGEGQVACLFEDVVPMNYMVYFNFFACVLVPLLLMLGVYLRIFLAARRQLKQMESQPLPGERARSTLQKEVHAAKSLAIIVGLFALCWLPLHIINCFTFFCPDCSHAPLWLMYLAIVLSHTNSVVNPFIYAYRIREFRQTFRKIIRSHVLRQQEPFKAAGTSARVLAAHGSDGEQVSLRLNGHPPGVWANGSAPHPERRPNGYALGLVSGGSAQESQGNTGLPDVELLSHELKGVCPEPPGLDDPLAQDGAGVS

Consider `COc1cccc2c1nc(N)n1nc([C@@H]3CCCN(c4cnn(C5CCOCC5)c4C)C3)nc21` [Example 47, (R)-7-methoxy-2-(1-(5-methyl-1-(tetrahydro-2H-pyran-4-yl)-1H-pyrazol-4-yl)piperidin-3-yl)-[1,2,4]triazolo[1,5-c]quinazolin-5-amine], for which the IC50 was 0.1 nM in assay [1] and 223 nM in assay [2].

Take `C[C@H]1CC[C@@H](c2nc3c4ccc(Br)cc4nc(N)n3n2)CN1c1cnn(CC(C)(C)O)c1` (single isomer, unassigned) [Example 198, 1-(4-((2S,5R or 2R,5S)-5-(5-amino-8-bromo-[1,2,4]triazolo[1,5-c]quinazolin-2-yl)-2-methylpiperidin-1-yl)-4H-pyrazol-1-yl)-2-methylpropan-2-ol]: the IC50 in assay [1] was 0.4 nM; in assay [2], 8.4 nM.

As to `COc1cccc2c1nc(N)n1nc(C3CC(F)CN(c4cnn(CC5(O)CCC5)c4)C3)nc21` (stereo not shown) [Example 150, 1-((4-(3-(5-amino-7-methoxy-[1,2,4]triazolo[1,5-c]quinazolin-2-yl)-5-fluoropiperidin-1-yl)-1H-pyrazol-1-yl)methyl)cyclobutan-1-ol], in assay [1], the IC50 stood at 80.5 nM. Besides, in assay [2], the “A2B binding % inh. @ 10000 nM” value came to 74% inh. @ 10000 nM.

`COc1cccc2c1nc(N)n1nc([C@@H]3CCCN(c4cn[nH]c4)C3)nc21` [Example 55]: the IC50 in assay [1] was 1.5 nM; in assay [2], 4.7 nM.

As to `COc1ccc2c(c1)nc(N)n1nc([C@@H]3CCCN(c4cn([C@H](C)C(C)(C)O)nc4C)C3)nc21` [Example 186A], the IC50 amounted to 0.4 nM in assay [1] and 462 nM in assay [2].

Turning to `COc1cccc2c1nc(N)n1nc([C@@H]3CCCN(c4cnn(C5CCCC5O)c4)C3)nc21` (stereo partly shown) [Example 58A], the IC50 in assay [1] was determined as 0.2 nM; in assay [2], 64.9 nM.

For `COc1ccc2c(c1)nc(N)n1nc([C@H]3C[C@H](C)CN(c4cnn(CC(C)(C)O)c4)C3)nc21` [Example 195C], the IC50 in assay [1] is 281 nM; in assay [2], 9440 nM.

For the compound `COc1ccc2c(c1)nc(N)n1nc([C@@H]3CCCN(c4cnn([C@H]5C[C@@](C)(O)C5)c4)C3)nc21` [Example 182, (1S,3s)-3-(4-((R)-3-(5-amino-8-methoxy-[1,2,4]-triazolo[1,5-c]quinazolin-2-yl)piperidin-1-yl)-1H-pyrazol-1-yl)-1-methylcyclobutan-1-ol], the values for the IC50 in assay [1] and in assay [2] were 1.3 nM and 188 nM, respectively.

On to `Cc1cccc2c1nc(N)n1nc(C3CCCN(c4cnn(C)c4)C3)nc21` (single isomer, unassigned) [Example 171, (R or S)-7-methyl-2-(1-(1-methyl-1H-pyrazol-4-yl)piperidin-3-yl)-[1,2,4]triazolo[1,5-c]quinazolin-5-amine], for which the IC50 in assay [1] amounted to 34.9 nM; in assay [2], 956 nM.

In the case of `COc1cccc2c1nc(N)n1nc([C@@H]3CCCN(c4cnn(C5CCOCC5)c4)C3)nc21` [Example 21, (R)-7-methoxy-2-(1-(1-(tetrahydro-2H-pyran-4-yl)-1H-pyrazol-4-yl)piperidin-3-yl)-[1,2,4]triazolo[1,5-c]quinazolin-5-amine], the IC50 stood at 0.6 nM in assay [1] and 111 nM in assay [2].

With `Cn1cc(N2CCCC(c3nc4c5c(F)ccc(F)c5nc(N)n4n3)C2)cn1` (single isomer, unassigned) [Example 172, (R or S)-7,10-difluoro-2-(1-(1-methyl-1H-pyrazol-4-yl)piperidin-3-yl)-[1,2,4]triazolo[1,5-c]quinazolin-5-amine], the IC50 amounted to 34.2 nM in assay [1] and 375 nM in assay [2].

Regarding `COc1cccc2c1nc(N)n1nc([C@H]3CCO[C@@H](c4cnn(C)c4)C3)nc21` [Example 139A], the IC50 in assay [1] stood at 167 nM; in assay [2], 2460 nM.

Consider `COc1cccc2c1nc(N)n1nc([C@@H]3CCCN(c4cn(C5CCOCC5)nc4C)C3)nc21` [Example 46, (R)-7-methoxy-2-(1-(3-methyl-1-(tetrahydro-2H-pyran-4-yl)-1H-pyrazol-4-yl)piperidin-3-yl)-[1,2,4]triazolo[1,5-c]quinazolin-5-amine], for which the IC50 in assay [1] turned out to be 0.4 nM; in assay [2], 404 nM.

With `COc1ccc2c(c1)nc(N)n1nc([C@@H]3CCCN(c4cn([C@@H](C)C(C)(C)O)nc4C)C3)nc21` [Example 186B, (S)-3-(4-((R)-3-(5-amino-8-methoxy-[1,2,4]triazolo[1,5-c]quinazolin-2-yl)piperidin-1-yl)-3-methyl-1H-pyrazol-1-yl)-2-methylbutan-2-ol], the IC50 in assay [1] worked out at 0.4 nM; in assay [2] it was 323 nM.

Consider `COc1ccc2c(c1)nc(N)n1nc([C@@H]3CCCN(c4cnn([C@H](C)C(C)(C)O)c4C)C3)nc21` [Example 189A, (R)-3-(4-((R)-3-(5-amino-8-methoxy[1,2,4]triazolo[1,5-c]quinazolin-2-yl)piperidin-1-yl)-5-methyl-1H-pyrazol-1-yl)-2-methylbutan-2-ol], for which the IC50 in assay [1] amounted to 0.6 nM; in assay [2], 228 nM.

Regarding `COc1ccc2c(c1)nc(N)n1nc([C@@H]3CCCN(c4ccc(OC(C)C)nc4)C3)nc21` [Example 192, (R)-2-(1-(6-isopropoxypyridin-3-yl)piperidin-3-yl)-8-methoxy-[1,2,4]triazolo[1,5-c]quinazolin-5-amine], the IC50 came out at 2.5 nM in assay [1] and 22.7 nM in assay [2].

For the compound `COc1cccc2c1nc(N)n1nc([C@@H]3CCCN(c4cnn(C)n4)C3)nc21` [Example 75, (R)-7-methoxy-2-(1-(2-methyl-2H-1,2,3-triazol-4-yl)piperidin-3-yl)-[1,2,4]triazolo[1,5-c]quinazolin-5-amine], the IC50 amounted to 1 nM in assay [1] and 11.6 nM in assay [2].

For `COc1cccc2c1nc(N)n1nc([C@@H]3CCCN(c4ccc(C(C)C)nn4)C3)nc21` [Example 107, (R)-2-(1-(6-isopropylpyridazin-3-yl)piperidin-3-yl)-7-methoxy-[1,2,4]triazolo[1,5-c]quinazolin-5-amine], the IC50 in assay [1] turned out to be 2.1 nM; in assay [2], 275 nM.

In the case of `Cc1ccc2c(c1)nc(N)n1nc([C@@H]3CC[C@H](C)N(c4cnn(CC(C)(C)O)c4)C3)nc21` (single isomer, unassigned) [Example 206, 1-(4-((2S, 5R or 2R,5S)-5-5-amino-8-methyl-[1,2,4]triazolo[1,5-c]quinazolin-2-yl)-2-methylpiperidin-1-yl)-1H-pyrazol-1-yl)-2-methylpropan-2-ol], the IC50 was 0.3 nM in assay [1] and 20.7 nM in assay [2].

As to `COc1cccc2c1nc(N)n1nc([C@@H]3CCCN(c4cn(CC(F)(F)F)nn4)C3)nc21` [Example 73, (R)-7-methoxy-2-(1-(1-(2,2,2-trifluoroethyl)-1H-1,2,3-triazol-4-yl)piperidin-3-yl)-[1,2,4]triazolo[1,5-c]quinazolin-5-amine], the IC50 in assay [1] was determined as 0.8 nM; in assay [2], 1.9 nM.

For the compound `COc1cccc2c1nc(N)n1nc([C@@H]3CCCN(c4cnn(C5CCCC5O)c4)C3)nc21` (single isomer, unassigned) [Example 58B], the IC50 in assay [1] worked out at 0.2 nM; in assay [2], 34.9 nM.

As to `COc1cccc2c1nc(N)n1nc([C@@H]3CCCN(c4cc(C)c(=O)n(C)c4)C3)nc21` [Example 93], the IC50 amounted to 1.5 nM in assay [1] and 229 nM in assay [2].

With `COc1ccc2c(c1)nc(N)n1nc([C@@H]3CCCN(c4cnn([C@H]5CCC[C@@H]5O)c4)C3)nc21` [Example 187B, (1S,2S)-2-(4-((R)-3-(5-amino-8-methoxy-[1,2,4]triazolo[1,5-c]quinazolin-2-yl)piperidin-1-yl)-1H-pyrazol-1-yl)cyclopentan-1-ol], the IC50 in assay [1] is 406 nM. In assay [2], the “A2B binding % inh. @ 10000 nM” value is 16% inh. @ 10000 nM.

`COc1cccc2c1nc(N)n1nc([C@@H]3CCCN(c4cnn(CC5(O)CCCCC5)c4)C3)nc21` [Example 44, (R)-1-((4-(3-(5-amino-7-methoxy-[1,2,4]triazolo[1,5-c]quinazolin-2-yl)piperidin-1-yl)-1H-pyrazol-1-yl)methyl)cyclohexan-1-ol]: the results for the IC50 in assay [1] and in assay [2] were 1.2 nM and 132 nM, respectively.

As to `COc1cccc2c1nc(N)n1nc([C@@H]3CCCN(c4cnn(C5CCCC5(C)O)c4)C3)nc21` (single isomer, unassigned) [Example 59A], the IC50 came out at 0.4 nM in assay [1] and 6.3 nM in assay [2].

As for `COc1cccc2c1nc(N)n1nc(C3CN(c4cn(CC(C)(C)O)nc4C)CC(F)(F)C3)nc21` (single isomer, unassigned) [Example 158B, (R or S)1-(4-(5-(5-amino-7-methoxy-[1,2,4]triazolo[1,5-c]quinazolin-2-yl)-3,3-difluoropiperidin-1-yl)-3-methyl-1H-pyrazol-1-yl)-2-methylpropan-2-ol], the IC50 was determined as 0.4 nM in assay [1] and 526 nM in assay [2].

Consider `COc1ccc2c(c1)nc(N)n1nc([C@@H]3CCCN(c4cnn([C@@H]5CCC[C@H]5O)c4)C3)nc21` [Example 187A, (1R,2R)-2-(4-((R)-3-(5-amino-8-methoxy-[1,2,4]triazolo[1,5-c]quinazolin-2-yl)piperidin-1-yl)-1H-pyrazol-1-yl)cyclopentan-1-ol], for which the IC50 in assay [1] turned out to be 2.8 nM; in assay [2] it was 1290 nM.

Turning to `COc1cccc2c1nc(N)n1nc([C@@H]3CCCN(c4cc(C)n(C)n4)C3)nc21` [Example 74, (R)-2-(1-(1,5-dimethyl-1H-pyrazol-3-yl)piperidin-3-yl)-7-methoxy-[1,2,4]triazolol[1,5-c]quinazolin-5-amine], the half-inhibitory concentration (IC50) came to 1 nM in assay [1] and 3.1 nM in assay [2].

With `COc1cccc2c1nc(N)n1nc([C@@H]3CCCN(c4cnn(C5CCC5O)c4)C3)nc21` (single isomer, unassigned) [Example 60B], the IC50 turned out to be 2 nM in assay [1] and 181 nM in assay [2].
